Where two headings read alike, the source gives them in different places.
Columns and labels:
ZBTB16 mRNA = test: Quantitative PCR of the P4 responsive gene ZBTB16 in T47D cells; format: cell-based, human; details: 100 μM, 24 h
[1] = biological target: T1, progesterone receptor ligand binding domain (PR-LBD-GST) (Homo sapiens, UniProt P06401); test: Progesterone receptor polarization competitive binding assay
T1 sequence (P06401 675-933): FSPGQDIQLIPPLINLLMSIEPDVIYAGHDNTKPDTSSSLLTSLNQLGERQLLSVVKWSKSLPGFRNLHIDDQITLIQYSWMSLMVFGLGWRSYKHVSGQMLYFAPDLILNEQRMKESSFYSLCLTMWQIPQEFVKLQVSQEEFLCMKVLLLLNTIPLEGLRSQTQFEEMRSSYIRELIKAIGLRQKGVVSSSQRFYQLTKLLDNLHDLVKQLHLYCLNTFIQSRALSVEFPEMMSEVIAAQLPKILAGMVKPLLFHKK

prolactin (PRL) mRNA = test: Quantitative PCR of decidualization gene PRL in HESC; format: cell-based, human; details: 100 μM, 48 h, with E2 and 8-Br-cAMP
Sulforhodamine B = format: cell-based; details: human
PRA and PRB protein = test: Western blot of PRA and PRB expression in T47D cells; format: cell-based, human; details: P4 1 μM, flavonoids 100 μM, 1.5 h or 16 h
[2] = biological target: T2, progesterone receptor (PR) (Homo sapiens, UniProt P06401); test: PRE-luciferase in T47D cells in combination with P4; format: cell-based; details: 10 μM compound plus 100 nM P4, 24 h
T2 sequence (P06401 679-933 limits assumed): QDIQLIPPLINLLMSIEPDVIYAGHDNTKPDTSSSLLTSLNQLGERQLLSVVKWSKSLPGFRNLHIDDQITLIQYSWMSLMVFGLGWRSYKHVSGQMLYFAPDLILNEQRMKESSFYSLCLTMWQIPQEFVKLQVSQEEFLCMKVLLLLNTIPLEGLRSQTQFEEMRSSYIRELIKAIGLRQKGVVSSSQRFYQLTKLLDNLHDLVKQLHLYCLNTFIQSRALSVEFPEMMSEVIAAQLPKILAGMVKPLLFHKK

[3] = biological target: T2, progesterone receptor (PR); test: PRE-luciferase reporter assay in T47D cells; format: cell-based; details: for PRE-luciferase Fold increase (10μM): compound 10 μM, over DMSO; for dose-dependent activation of PRE-luciferase: five increasing doses; for compound-induced PRE-luciferase activity in the presence of RU486: with 1 μM RU486, T47D cells
ovarian cancer = details: kaempferol intake, human observational studies; cited from earlier work
[4] = biological target: T3, progesterone receptor (PR) (Homo sapiens, UniProt P06401); test: PRE-luciferase reporter assay in human endometrial stromal cells; format: cell-based; details: for dose-dependent activation of PRE-luciferase: HESC; for compound-induced PRE-luciferase in the presence of RU486: compound 20 μM with 1 μM RU486, HESC
T3 sequence (P06401 1-933): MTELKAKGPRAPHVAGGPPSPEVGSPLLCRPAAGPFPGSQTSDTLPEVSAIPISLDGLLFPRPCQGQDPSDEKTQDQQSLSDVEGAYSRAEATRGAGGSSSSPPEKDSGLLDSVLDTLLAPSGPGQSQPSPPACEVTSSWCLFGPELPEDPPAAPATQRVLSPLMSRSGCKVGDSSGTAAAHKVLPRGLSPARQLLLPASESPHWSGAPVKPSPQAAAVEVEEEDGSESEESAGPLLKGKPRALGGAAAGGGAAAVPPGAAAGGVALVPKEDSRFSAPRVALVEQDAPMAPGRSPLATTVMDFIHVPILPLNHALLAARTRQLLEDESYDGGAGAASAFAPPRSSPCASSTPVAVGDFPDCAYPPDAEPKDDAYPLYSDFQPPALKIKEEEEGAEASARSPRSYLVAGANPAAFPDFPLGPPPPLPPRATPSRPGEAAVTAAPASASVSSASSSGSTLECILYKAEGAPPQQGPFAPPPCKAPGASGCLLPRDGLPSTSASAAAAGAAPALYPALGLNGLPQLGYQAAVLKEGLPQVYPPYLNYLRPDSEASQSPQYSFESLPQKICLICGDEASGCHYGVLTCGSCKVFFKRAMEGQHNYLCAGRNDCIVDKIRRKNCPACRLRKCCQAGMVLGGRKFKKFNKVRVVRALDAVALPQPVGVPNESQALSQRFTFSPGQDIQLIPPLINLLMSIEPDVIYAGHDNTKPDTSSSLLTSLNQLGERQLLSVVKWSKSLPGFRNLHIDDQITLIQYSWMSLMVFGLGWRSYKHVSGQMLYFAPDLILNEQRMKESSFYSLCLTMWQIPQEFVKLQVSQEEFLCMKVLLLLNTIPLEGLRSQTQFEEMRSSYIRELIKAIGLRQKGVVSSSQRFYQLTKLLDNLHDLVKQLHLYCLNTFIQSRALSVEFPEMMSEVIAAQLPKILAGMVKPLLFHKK

T47D cells = test: Sulforhodamine B; format: cell-based
[5] = system: cannabinoid receptor 1 (CNR1) mRNA; test: Quantitative PCR of decidualization gene CNR1 in HESC; format: cell-based, human; details: 100 μM, 48 h, with E2 and 8-Br-cAMP
[6] = system: MPA-induced mammary tumors; details: rats; cited from earlier work

In the case of `O=c1c(O)c(-c2ccc(O)cc2)oc2cc(O)cc(O)c12` [Kaempferol, kaempferol], the “induction of ZBTB16 mRNA” value (ZBTB16 mRNA) is reported as “significantly induced”, the IC50 [1] is reported as 1.5 ± 0.4 µM and the “induction of PRL expression” value (prolactin (PRL) mRNA) is reported as “induced PRL expression”. For the same compound, the CC50 at 24 h (Sulforhodamine B; T47D cells) was greater than 20 µM, the “downregulation of PRA and PRB protein expression” value (PRA and PRB protein) was “not observed” and the “downregulation of P4-induced PRE-luciferase” value [2] was “significantly downregulated”. For the same compound, the “concentration of highest PRE-luciferase activity from dose response curves” value ([3]; T47D cells) was 7.5 µM, the “PRE-luciferase Fold increase (10μM)” value ([3]; T47D cells) was 5.5 ± 1.8 fold and the “dose-dependent activation of PRE-luciferase” value (“dose-dependent activation” for short) ([3]; T47D cells) was “dose-dependently activated”. The “concentration above which PRE-luciferase activity started to decrease” value ([3]; likely due to cell death) was greater than 10 µM, the “compound-induced PRE-luciferase activity in the presence of RU486” value (“compound-induced PRE-luciferase activity” below) [3] was “significantly abrogate” and the “decrease of ovarian cancer incidence” value (ovarian cancer) was 40%. The “dose-dependent activation” value [4] was “dose-dependently activated” and the “compound-induced PRE-luciferase in the presence of RU486” value [4] was “significantly inhibited”.

With `COc1ccc(-c2coc3cc(O)cc(O)c3c2=O)cc1` [Biochanin A, biochanin A] the IC50 ([1]; read-out: PR Binding IC50, pure compounds, purified PR) was greater than 250 µM, the CC50 (T47D cells) was greater than 20 µM and the “PRE-luciferase Fold increase (10μM)” value ([3]; T47D cells) was 1.0 ± 0.1 fold.

With `CC(=O)O[C@]1(C(C)=O)CC[C@H]2[C@@H]3C[C@H](C)C4=CC(=O)CC[C@]4(C)[C@H]3CC[C@@]21C` [MPA, medroxyprogesterone acetate, reference compound] the “PRE-luciferase activity compared with P4” value ([3]; T47D cells, data not shown) was “comparable activity”, the “dose-dependent activation” value [4] was “dose-dependently activated” and the “compound-induced PRE-luciferase in the presence of RU486” value [4] was “significantly inhibited”.

For `COc1ccc(-c2coc3cc(O)ccc3c2=O)cc1` [Formononetin, formononetin], the IC50 [1] was greater than 250 µM, the CC50 at 24 h (Sulforhodamine B; T47D cells) was greater than 20 µM and the “PRE-luciferase Fold increase (10μM)” value ([3]; T47D cells) was 1.5 ± 0.6 fold.

For `CC(=O)[C@H]1CC[C@H]2[C@@H]3CCC4=CC(=O)CC[C@]4(C)[C@H]3CC[C@]12C` [Progesterone, reference compound], the “downregulation of PRA and PRB protein expression” value (PRA and PRB protein) was “downregulation of PRB and more noticeably PRA”, the “dose-dependent activation” value ([3]; T47D cells) was “dose-dependently activated” and the “compound-induced PRE-luciferase activity” value [3] was “significantly abrogate”.

With `O=C1C[C@@H](c2ccc(O)cc2)Oc2cc(O)cc(O)c21` [Naringenin, naringenin] the “induction of ZBTB16 mRNA” value (ZBTB16 mRNA) was “did not induce”, the IC50 [1] was 6.9 ± 1.8 µM and the “induction of CNR1 expression” value [5] was “did not induce CNR1 expression”. For the same compound, the “induction of PRL expression” value (prolactin (PRL) mRNA) was “induced PRL expression”, the CC50 at 24 h (Sulforhodamine B; T47D cells) was greater than 20 µM and the “downregulation of PRA and PRB protein expression” value (PRA and PRB protein) was “not observed”. For the same compound, the “PRE-luciferase activation versus solvent control” value ([3]; 20 μM, T47D cells) was “reached significance”, the “PRE-luciferase Fold increase (10μM)” value ([3]; T47D cells) was 1.9± 0.4 fold and the “dose-dependent activation” value ([3]; T47D cells) was “dose-dependently activated”. For the same compound, the “compound-induced PRE-luciferase activity” value [3] was “significantly abrogate”.

With `O=c1c(-c2ccc(O)cc2)coc2cc(O)ccc12` [Daidzein, daidzein] the IC50 [1] was greater than 250 µM, the CC50 at 24 h (Sulforhodamine B; T47D cells) was greater than 20 µM and the “PRE-luciferase Fold increase (10μM)” value ([3]; T47D cells) was 1.0 ± 0.4 fold.

For `O=c1cc(-c2ccc(O)cc2)oc2cc(O)cc(O)c12` [Apigenin, apigenin], the “development of MPA-induced mammary tumors” value [6] is listed as “prevents the development”, the “induction of ZBTB16 mRNA” value (ZBTB16 mRNA) is listed as “did not induce” and the “induction of PRL expression” value (prolactin (PRL) mRNA) is listed as “induced PRL expression”. For the same compound, the CC50 at 24 h (Sulforhodamine B) was greater than 20 µM.

In the case of `O=c1c(-c2ccc(O)cc2)coc2cc(O)cc(O)c12` [Genistein], the IC50 [1] is reported as greater than 250 µM, the CC50 at 24 h (Sulforhodamine B) is reported as greater than 20 µM and the “PRE-luciferase Fold increase (10μM)” value ([3]; T47D cells) is reported as 2.2 ± 1.1 fold.

Reference: paper PMC3601661 (Steroids, 2012)
